In patent US20070027130A1, “Tricyclic 6-alkylidene-penem beta-lactamase inhibitors and beta-lactam antibiotic combination: a broad spectrum antibiotic” (priority 2005, published 2007):
Converted amounts (≈) assume the structure as drawn.

Columns and labels:
Assay in all cases: MIC microbroth dilution
Type in all cases: cell-based
[1] = system: A. baumannii GC 7684 AmpC, AmpC; conditions: Acinetobacter baumannii, β-lactamase class C, MHBII, 35° C. 18 hr, read-out: Minimal Inhibitory Concentration
Description: (§1) The in vitro activities of the antibiotics were determined by the microbroth dilution method as recommended by the National Committee for Clinical Laboratory Standards (NCCLS). (NCCLS. 2000. Methods for Dilution Antimicrobial Susceptibility Tests for Bacteria That Grow Aerobically; Approved Standards: M7-A5, vol. 19. National Committee for Clinical Laboratory Standards, Villanova, Pa.). Mueller-Hinton II broth (MHBII) (BBL Cockeysville, Md.), was used for the testing procedure. […]. The plates were incubated for 18-22 hours at 35 C. in ambient air.

[2] = system: A. baumannii GC 7687 AmpC; conditions: Acinetobacter baumannii, GC7687AMPC, β-lactamase class C, MHBII, 35° C. 18 hr, read-out: Minimal Inhibitory Concentration
Description: as §1

[3] = system: A. baumannii GC 7692 TEM-1, AmpC; conditions: Acinetobacter baumannii, 18 h, read-out: Minimal Inhibitory Concentration
Description: as §1

E. cloacae GC 1475 (P99) = conditions: Enterobacter cloacae, β-lactamase class C, MHBII, 35° C. 18 hr, read-out: Minimal Inhibitory Concentration
Description: as §1

[4] = system: E. cloacae PT 967 Inducible AmpC; conditions: Enterobacter cloacae, β-lactamase class C, MHBII, 35° C. 18 hr, read-out: Minimal Inhibitory Concentration
Description: as §1

[5] = system: E. coli GAR 5929 TEM, OXA, Act-1 , CTX (By PCR only); conditions: Escherichia coli, β-lactamase class A, C, D, MHBII, 35° C. 18 hr, read-out: Minimal Inhibitory Concentration
Description: as §1

E. coli GC 1480 OXA-1 = conditions: Escherichia coli, GC1480OXA1, β-lactamase class D, MHBII, 35° C. 18 hr, read-out: Minimal Inhibitory Concentration
Description: as §1

[6] = system: E. coli GC 1499 (TEM-4 + TEM-1); conditions: Escherichia coli, β-lactamase class A, A (ESBL), MHBII, 35° C. 18 hr, read-out: Minimal Inhibitory Concentration
Description: as §1

E. coli GC 1684 (TEM-10) = conditions: Escherichia coli, β-lactamase class A (ESBL), MHBII, 35° C. 18 hr, read-out: Minimal Inhibitory Concentration
Description: as §1

E. coli GC 1995 (TEM-10) = conditions: Escherichia coli, β-lactamase class A (ESBL), MHBII, 35° C. 18 hr, read-out: Minimal Inhibitory Concentration
Description: as §1

[7] = system: E. coli GC 2149 (ACT-1; TEM-1 + pl 5.6); conditions: Escherichia coli, β-lactamase class A, A (ESBL), C, MHBII, 35° C. 18 hr, read-out: Minimal Inhibitory Concentration
Description: as §1

E. coli GC 2400 (TEM-43) = conditions: Escherichia coli, β-lactamase class A (ESBL), MHBII, 35° C. 18 hr, read-out: Minimal Inhibitory Concentration
Description: as §1

E. coli GC 2847 (TEM-1) = conditions: Escherichia coli, β-lactamase class A, MHBII, 35° C. 18 hr, read-out: Minimal Inhibitory Concentration
Description: as §1

E. coli GC 2920 (IRT-2) = conditions: Escherichia coli, β-lactamase class A (IRT), MHBII, 35° C. 18 hr, read-out: Minimal Inhibitory Concentration
Description: as §1

[8] = system: E. coli GC 4971 OXA-1, TEM-1; conditions: Escherichia coli, β-lactamase class A, D, MHBII, 35° C. 18 hr, read-out: Minimal Inhibitory Concentration
Description: as §1

[9] = system: E. coli GC 6197 (TEM-1 + SHV-7 + CMY-2); conditions: Escherichia coli, β-lactamase class A, A (ESBL), C, MHBII, 35° C. 18 hr, read-out: Minimal Inhibitory Concentration
Description: as §1

[10] = system: E. coli GC 6260 (TEM-1 + SHV-5); conditions: Escherichia coli, β-lactamase class A, A (ESBL), MHBII, 35° C. 18 hr, read-out: Minimal Inhibitory Concentration
Description: as §1

E. coli GC 6368 (SHV-7) = conditions: Escherichia coli, β-lactamase class A (ESBL), MHBII, 35° C. 18 hr, read-out: Minimal Inhibitory Concentration
Description: as §1

K. pn GC 1516 (TEM-26) = conditions: Klebsiella pneumoniae, β-lactamase class A (ESBL), MHBII, 35° C. 18 hr, read-out: Minimal Inhibitory Concentration
Description: as §1

[11] = system: K. pn GC 2006 (TEM-10 + SHV-1); conditions: Klebsiella pneumoniae, β-lactamase class A, A (ESBL), MHBII, 35° C. 18 hr, read-out: Minimal Inhibitory Concentration
Description: as §1

[12] = system: K. pneumoniae GC 7635 SHV-1, KPC2; conditions: Klebsiella pneumoniae, β-lactamase class A, A (Cb'ase), MHBII, 35° C. 18 hr, read-out: Minimal Inhibitory Concentration
Description: as §1

[13] = system: K. pneumoniae GC 7820 Act 1; conditions: Klebsiella pneumoniae, GC7820ACT1, β-lactamase class C, MHBII, 35° C. 18 hr, read-out: Minimal Inhibitory Concentration
Description: as §1

[14] = system: P. aeruginosa GC 1763 AmpC-inducible; conditions: Pseudomonas aeruginosa, β-lactamase class C, MHBII, 35° C. 18 hr, read-out: Minimal Inhibitory Concentration
Description: as §1

[15] = system: P. aeruginosa GC 1764 (AmpC); conditions: Pseudomonas aeruginosa, β-lactamase class C, MHBII, 35° C. 18 hr, read-out: Minimal Inhibitory Concentration
Description: as §1

[16] = system: P. aeruginosa PT 8411 PTZ-R*; conditions: Pseudomonas aeruginosa; P. aeruginosa PT 8411, piperacillin-tazobactam-resistant; MHBII, 35° C. 18 hr; read-out: Minimal Inhibitory Concentration
Description: as §1

Compound: CO/N=C(\C(=O)N[C@@H]1C(=O)N2C(C(=O)[O-])=C(C[N+]3(C)CCCC3)CS[C@H]12)c1csc(N)n1 [Cefepime]
- MIC [1]: 16 µg/mL (≈ 33.3 µM)
- MIC [2]: 16 µg/mL (≈ 33.3 µM)
- MIC [3]: > 16 µg/mL
- MIC (E. cloacae GC 1475 (P99)): 1 µg/mL (≈ 2.08 µM)
- MIC [4]: 0.12 µg/mL (≈ 0.25 µM)
- MIC [5]: > 16 µg/mL
- MIC (E. coli GC 1480 OXA-1): 4 µg/mL (≈ 8.32 µM)
- MIC [6]: > 16 µg/mL
- MIC (E. coli GC 1684 (TEM-10)): > 16 µg/mL
- MIC (E. coli GC 1995 (TEM-10)): > 16 µg/mL
- MIC [7]: 16 µg/mL (≈ 33.3 µM)
- MIC (E. coli GC 2400 (TEM-43)): > 16 µg/mL
- MIC (E. coli GC 2847 (TEM-1)): 0.12 µg/mL (≈ 0.25 µM)
- MIC (E. coli GC 2920 (IRT-2)): 0.06 µg/mL (≈ 0.125 µM)
- MIC [8]: 2 µg/mL (≈ 4.16 µM)
- MIC [9]: > 16 µg/mL
- MIC [10]: > 16 µg/mL
- MIC (E. coli GC 6368 (SHV-7)): 2 µg/mL (≈ 4.16 µM)
- MIC (K. pn GC 1516 (TEM-26)): > 16 µg/mL
- MIC [11]: > 16 µg/mL
- MIC [12]: > 16 µg/mL
- MIC [13]: 0.5 µg/mL (≈ 1.04 µM)
- MIC [14]: 2 µg/mL (≈ 4.16 µM)
- MIC [15]: 8 µg/mL (≈ 16.6 µM)
- MIC [16]: 16 µg/mL
